Measured values taken from publication PMC12527977, “Discovery of a novel tetrapeptide as glucose homeostasis modulator with bifunctionalities of targeting DPP‐IV and microbiota” (iMeta, 2025).
Where a SMILES comes first, the peptide text is derived from it.

Key:
in vitro = in vitro ADME, Akkermansia muciniphila; settings: cells or culture medium, VAMP remaining, incubated with A. muciniphila
Source text: The levels of VAMP at different time points were quantified by targeted metabolomics.

DPP-IV = DPP-IV (Homo sapiens, UniProt P27487); experiment: DPP-IV inhibitory activity of peptides (DPP-IV-Glo Protease Assay Kit); assay type: biochemical; design: purchased QiZheng Biotech (Shanghai, China) IBDPP0901; settings: for DPP-IV inhibitory activity: DPP-IV-Glo Protease Assay Kit, control = 0, sheet S2F, in % (unit assumed)
DPP-IV, sequence (P27487 whole entry): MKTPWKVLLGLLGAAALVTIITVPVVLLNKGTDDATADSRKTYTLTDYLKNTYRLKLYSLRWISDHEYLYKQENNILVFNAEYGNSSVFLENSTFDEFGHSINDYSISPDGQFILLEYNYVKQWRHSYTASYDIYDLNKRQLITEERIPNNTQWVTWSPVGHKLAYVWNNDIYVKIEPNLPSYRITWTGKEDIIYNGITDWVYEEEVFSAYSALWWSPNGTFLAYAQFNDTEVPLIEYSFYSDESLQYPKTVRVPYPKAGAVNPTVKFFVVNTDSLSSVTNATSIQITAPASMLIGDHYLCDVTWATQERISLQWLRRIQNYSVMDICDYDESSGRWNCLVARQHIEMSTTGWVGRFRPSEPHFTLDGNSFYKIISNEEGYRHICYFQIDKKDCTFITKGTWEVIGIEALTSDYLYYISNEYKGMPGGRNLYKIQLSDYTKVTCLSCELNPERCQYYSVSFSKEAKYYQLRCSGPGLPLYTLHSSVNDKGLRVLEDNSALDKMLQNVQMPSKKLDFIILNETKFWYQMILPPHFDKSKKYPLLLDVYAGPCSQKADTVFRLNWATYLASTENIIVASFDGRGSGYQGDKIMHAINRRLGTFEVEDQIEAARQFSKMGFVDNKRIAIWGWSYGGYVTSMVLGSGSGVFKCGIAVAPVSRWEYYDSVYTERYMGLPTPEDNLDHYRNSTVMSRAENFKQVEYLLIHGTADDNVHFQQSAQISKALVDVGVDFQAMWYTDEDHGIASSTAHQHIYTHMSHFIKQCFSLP

Q: For `CSCC[C@H](NC(=O)[C@H](C)NC(=O)[C@@H](N)C(C)C)C(=O)N1CCC[C@H]1C(=O)O` [VAMP] (H-VAMP-OH), which remaining at 3 h, 100 μM (in vitro; time 3) is on record?
A: The remaining at 3 h, 100 μM was 98.6%.

Q: And the remaining at 6 h, 100 μM (in vitro; time 6)?
A: The remaining at 6 h, 100 μM was 95.4%.

Q: What about the remaining at 9 h, 100 μM (in vitro; time 9) of the same compound?
A: Its remaining at 9 h, 100 μM is 93.3%.

Q: What about the remaining at 12 h, 100 μM (in vitro; time 12) of the same compound?
A: Its remaining at 12 h, 100 μM is 79.6%.

Q: And the remaining at 24 h, 100 μM (in vitro; time 24)?
A: Its remaining at 24 h, 100 μM is 28.1%.

Q: And the remaining at 36 h, 100 μM (in vitro; time 36)?
A: The remaining at 36 h, 100 μM was 21.4%.

Q: And the remaining at 48 h, 100 μM (in vitro; time 48)?
A: The remaining at 48 h, 100 μM was 19.3%.

Q: And the inhibition at 1 µg/mL (DPP-IV)?
A: The inhibition at 1 µg/mL was 50.7%.

Q: And the inhibition at 20 µg/mL (DPP-IV)?
A: Its inhibition at 20 µg/mL is 52.1%.

Q: And the inhibition at 50 µg/mL (DPP-IV)?
A: Its inhibition at 50 µg/mL is 68.9%.

Q: And the inhibition at 100 µg/mL (DPP-IV)?
A: The inhibition at 100 µg/mL was 77.6%.

Q: What about the inhibition at 200 µg/mL (DPP-IV) of the same compound?
A: The inhibition at 200 µg/mL was 81.5%.

Q: What about the DPP-IV inhibitory activity (DPP-IV; replicate 1) of the same compound?
A: Its DPP-IV inhibitory activity is 68.9829.

Q: What about the DPP-IV inhibitory activity (DPP-IV; replicate 2) of the same compound?
A: The DPP-IV inhibitory activity was 67.7707.

Q: And the DPP-IV inhibitory activity (DPP-IV; replicate 3)?
A: The DPP-IV inhibitory activity was 61.9665.

Q: And the IC50 (DPP-IV; Table S3, read-out: IC50)?
A: Its IC50 is 1 µM.
